In patent US6218431A, “Substituted biphenyls” (Bayer Corporation, priority 1997, dated 2001):

What follows are compounds tested against T1, glucagon receptor (Homo sapiens, UniProt P47871) (assay: glucagon receptor binding assay (125I-glucagon, CHO-HGR membranes)). Conditions: 20 μM; reported where 20 μM did not reduce glucagon binding by 50%.
T1 construct: expressed in transfected cells; host or cells: Chinese Hamster Ovary cells (CHO-HGR), membranes
T1 sequence (P47871 26-477): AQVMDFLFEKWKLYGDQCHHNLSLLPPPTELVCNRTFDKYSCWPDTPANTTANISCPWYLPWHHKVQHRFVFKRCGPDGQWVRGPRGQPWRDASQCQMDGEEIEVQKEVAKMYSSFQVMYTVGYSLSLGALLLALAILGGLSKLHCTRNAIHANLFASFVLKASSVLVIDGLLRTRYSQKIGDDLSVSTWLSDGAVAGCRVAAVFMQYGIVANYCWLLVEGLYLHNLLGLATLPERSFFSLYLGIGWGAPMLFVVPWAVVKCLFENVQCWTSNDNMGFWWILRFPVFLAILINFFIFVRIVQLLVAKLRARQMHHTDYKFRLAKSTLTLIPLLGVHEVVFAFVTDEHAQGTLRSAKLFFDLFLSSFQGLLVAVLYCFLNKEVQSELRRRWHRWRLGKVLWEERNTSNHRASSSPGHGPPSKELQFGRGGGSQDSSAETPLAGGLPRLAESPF
Protocol: The affinity for the glucagon receptor of compounds of the present invention is determined by the glucagon receptor binding assay. Membranes were prepared from Chinese Hamster Ovary cells expressing the glucagon receptor (CHO-HGR) by scraping the cells into hypotonic lysis buffer (10 mM Tris, pH 7.4, 2 mM EDTA, 5 mM MgCl2 and 1 mM PMSF) and subjecting the material to Polytron homogenization. Nuclei were removed by a 15-min 800×g centrifugation step conducted at 4° C. Membranes containing the receptor were collected by centrifugation at 15,000×gfor 15 min at 4° C. The membranes were washed once in lysis buffer and suspended in 0.25 M sucrose, 10 mM Tris, 5 mM EDTA, pH 7.4. The membranes were used in ligand binding studies as reported (Yoo-Warren, H., Willse, A. G., Hancock, N., Hull, J., McCaleb, M., and Livingston, J. Regulation of Rat Glucagon Receptor Expression. Biochem. Biophysical Res. Commun. 1994, 205, 347-353). In brief, 10 ug of membrane protein was incubated in 130 μl of binding buffer that consisted of 20 mM Tris, […], 1 mM EDTA, 1 mg/ml BSA, and 1 mg/ml bacitracin. The membrane suspension was placed in each well of a 96-well filtration plate (glass fiber type C, Millipore). […] Following the addition of test compound, 50 μl of ^125 I-glucagon (9 fmol) (NEN) was added to each well. Control wells contained membranes, 0.5% DMSO (solvent for test compounds), radiolabeled glucagon without and with excess native glucagon (1 μM) to establish nonspecific binding. The plates were incubated for 60 min at room temperature, and then filtered on a Mllipore vacuum apparatus. Following a wash step with ice-cold PBS/0.1% BSA, the filters were punched into test tubes, and the membrane bound radioactivity was determined.
An inhibition at 20 µM of 38.5% was found for `C=CC(O)c1c(C(C)C)nc(C(C)C)c(CCCCC)c1-c1ccc(F)cc1` (racemic) [Example 114, (±)-2,6-Diisopropyl-3-(1-hydroxy-2-propenyl)-4-(4-fluorophenyl)-5-pentylpyridine] in this work. An inhibition at 20 µM of 17.5% was found for `COC(=O)c1c(C(C)C)nc(C(C)C)c(CN2CCC(N3CCCCC3)CC2)c1-c1ccc(F)cc1` [Example 73, Methyl-2,6-diisopropyl-4-(4-fluorophenyl)-5-(4piperidinopiperidin-1-yl)methyl-3-pyridinecarboxylate] in this work. An inhibition at 20 µM of 49.2% was found for `CCCCCc1c(C(C)C)nc(C(C)C)c(CNCC)c1-c1ccc(F)cc1` [Example 123, 2,6-Diisopropyl-3-(ethylamino)methyl-4-(4-fluorophenyl)-5-pentylpyridine] in this work. An inhibition at 20 µM of 38.8% was found for `CCCCN(CCCC)Cc1c(C(C)C)nc(C(C)C)c(CO)c1-c1ccc(F)cc1` [Example 80, 2,6-Diisopropyl-3-hydroxymethyl-4-(4fluorophenyl)-5-(dibutylamino)-methylpyridine] in this work. An inhibition at 20 µM of 28.3% was found for `CC(C)c1nc(C(C)C)c(C(C)O)c(-c2ccc(F)cc2)c1CO` (racemic) [Example 93, (±)-2,6-Diisopropyl-3-hydroxymethyl-4-(4-fluorophenyl-5-(1-hydroxy-ethyl)pyridine] in this work. An inhibition at 20 µM of 13.9% was found for `CCCC=Cc1c(C(C)C)nc(C(C)C)c(CO)c1-c1ccccc1OCc1ccccc1` [Example 162, 2,6-Diisopropyl-3-hydroxymethyl-4-(2-benzyloxyphenyl)-5-(pent-1-enyl)pyridine] in this work. An inhibition at 20 µM of 27.8% was found for `CC(C)c1nc(C(C)C)c(C(O)c2ccccc2)c(-c2ccc(F)cc2)c1CO` (racemic) [Example 96, (±)-2,6-Diisopropyl-3-hydroxymethyl-4-(4-fluorophenyl)-5-(hydroxy-phenylmethyl)pyridine] in this work. An inhibition at 20 µM of 17% was found for `C=Cc1c(CC)nc(CC)c(CO)c1-c1ccccc1` [Example 8] in this work. An inhibition at 20 µM of 48.8% was found for `CCCCCc1c(C(C)C)nc(C(C)C)c(CO)c1-c1cccc(Cl)c1` [Example 146, 2,6-Diisopropyl-3-hydroxymethyl-4-(3-chlorophenyl)-5-pentylpyridine] in this work. An inhibition at 20 µM of 39% was found for `CCCC=Cc1c(C(C)C)nc(C(C)C)c(CO)c1-c1ccc(Cl)c(Cl)c1` [Example 149, 2,6-Diisopropyl3-hydroxymethyl-4-(3,4-dichlorophenyl)-5-(pent-1-enyl)pyridine] in this work. An inhibition at 20 µM of 15.7% was found for `CC(C)c1nc(C(C)C)c(CSc2ccc(O)cc2)c(-c2ccc(F)cc2)c1CO` [Example 55, 2,6-Diisopropyl-3-hydroxymethyl-4-(4-fluorophenyl)-5-[(4-hydroxy-phenyl)thio]methylpyridine] in this work. An inhibition at 20 µM of 21% was found for `CCCC=Cc1c(C(C)C)nc(C(C)C)c(CO)c1-c1ccc(OCc2ccccc2)cc1` [Example 160, 2,6-Diisopropyl-3-hydroxymethyl-4-(4-benzyloxyphenyl)-5-(pent-1-enyl)pyridine] in this work. An inhibition at 20 µM of 1.98% was found for `CCCCCc1c(C)nc(C)c(CO)c1-c1ccccc1` [Example 4] in this work. An inhibition at 20 µM of 29.2% was found for `CC(C)c1nc(C(C)C)c(C(O)C(C)C)c(-c2ccc(F)cc2)c1CO` (racemic) [Example 97, (±)-2,6-Diisopropyl-3-hydroxymethyl-4-(4-fluorophenyl)-5-[(1-hydroxy-2-methyl)propyl]pyridine] in this work. An inhibition at 20 µM of 1.52% was found for `CCCC=Cc1c(C)nc(C)c(CO)c1-c1ccccc1` [Example 3] in this work. An inhibition at 20 µM of 46.3% was found for `CCCCCc1c(C(C)C)nc(C(C)C)c(CO)c1-c1cccc(C)c1` [Example 140, 2,6-Diisopropyl-3-hydroxymethyl-4-(3-methylphenyl)-5-pentylpyridine] in this work. An inhibition at 20 µM of 5.11% was found for `CCCCCc1c(C(C)(C)O)nc(C(C)C)c(CO)c1-c1ccc(F)cc1` [Example 219, 2-(1-Hydroxy-1-methylethyl)-3-pentyl-4-(4-fluorophenyl)-5-hydroxymethyl-6-isopropylpyridine] in this work. An inhibition at 20 µM of 40.3% was found for `C=CCc1c(C)cc(C)c(C(C)O)c1-c1ccc(F)cc1` (centres unmarked) [Example 196, 3,5-Dimethyl-2-(1-hydroxyethyl)-6-(prop-2-enyl)-4'-fluoro-1,1'-biphenyl] in this work. An inhibition at 20 µM of 34.2% was found for `CC(C)c1nc(C(C)C)c(CN2CCN(c3ccccc3)CC2)c(-c2ccc(F)cc2)c1CO` [Example 75, 2,6-Diisopropyl-3-hydroxymethyl-4-(4-fluorophenyl)-5-[(4-phenylpiperazin-1-yl)methyl]pyridine] in this work.

Same assay, conditions: 125I-glucagon; 60 min at room temperature; read-out: IC50
An IC50 of 700 nM was found for `CCCCCCCc1c(C(C)C)nc(C(C)C)c(CO)c1-c1ccc(F)cc1` [Example 35, 2,6-Diisopropyl-3-hydroxymethyl-4-(4-fluorophenyl)-5-heptylpyridine] in this work. An IC50 of 1800 nM was found for `CCCCCCC=Cc1c(C(C)C)nc(C(C)C)c(CO)c1-c1ccc(F)cc1` [Example 33, 2,6-Diisopropyl-3-hydroxymethyl-4-(4-fluorophenyl)-5-(1-octenyl)-pyridine] in this work. An IC50 of 17000 nM was found for `CCCCCc1c(C(C)C)nc(C)c(CO)c1-c1ccc(F)cc1` [Example 198, 2-Isopropyl-3-pentyl-4-(4-fluorophenyl)-5-hydroxymethyl-6-methylpyridine] in this work. An IC50 of 1700 nM was found for `CC(C)c1ccc(SCc2c(C(C)C)nc(C(C)C)c(CO)c2-c2ccc(F)cc2)cc1` [Example 63, 2,6-Diisopropyl-3-hydroxymethyl-4-(4-fluorophenyl)-5-[(4-isopropyl-phenyl)thio]methylpyridine] in this work. An IC50 of 900 nM was found for `CCCC=Cc1c(C(C)C)nc(C(C)C)c(CO)c1-c1ccc(Cl)cc1` [Example 143, 2,6-Diisopropyl-3-hydroxymethyl-4-(4-chlorophenyl)-5-(pent-1-enyl)pyridine] in this work. An IC50 of 9000 nM was found for `CC(C)c1nc(C(C)C)c(CCCC2OCCO2)c(-c2ccc(F)cc2)c1CO` [Example 46] in this work. An IC50 of 86 nM was found for `CCCCCc1c(C(C)C)cc(C(C)C)c(C(C)O)c1-c1ccc(F)cc1` (single isomer, unassigned; (+)) [Example 193, (+)-3,5-Diisopropyl-2-(1-hydroxyethyl)-6-pentyl-4'-fluoro-1,1-biphenyl] in this work. An IC50 of 1100 nM was found for `CCc1ccc(SCc2c(C(C)C)nc(C(C)C)c(CO)c2-c2ccc(F)cc2)cc1` [Example 62, 2,6-Diisopropyl-3-hydroxymethyl-4-(4-fluorophenyl)-5-[(4-ethyl-phenyl)thio]methylpyridine] in this work. An IC50 of 14000 nM was found for `CCCCCc1c(C(O)CC)nc(C(C)C)c(CO)c1-c1ccc(F)cc1` (centres unmarked) [Example 212, 2-(1-Hydroxypropyl)-3-pentyl-4-(4-fluorophenyl)-5-hydroxymethyl-6-isopropylpyridine] in this work. An IC50 of 1100 nM was found for `C=Cc1c(C(C)C)nc(C(C)C)c(CO)c1-c1ccc(F)cc1` [Example 22, 2,6Diisopropyl-3-hydroxymethyl-4-(4-fluorophenyl)-5-ethenylpyridine] in this work. An IC50 of 1000 nM was found for `CC(C)CCc1c(C(C)C)nc(C(C)C)c(CO)c1-c1ccc(F)cc1` [Example 29, 2,6-Diisopropyl-3-hydroxymethyl-4-(4-fluorophenyl)-5-(3-methylbutyl)pyridine] in this work. An IC50 of 900 nM was found for `Cc1ccc(SCc2c(C(C)C)nc(C(C)C)c(CO)c2-c2ccc(F)cc2)cc1` [Example 50, 2,6-Diisopropyl-3-hydroxymethyl-4-(4-fluorophenyl)-5-[((4-methyl)-phenyl)thio]methylpyridine] in this work. An IC50 of 1100 nM was found for `Cc1ccc(CCCc2c(C(C)C)nc(C(C)C)c(CO)c2-c2ccc(F)cc2)cc1` [Example 86, 2,6-Diisopropyl-3-hydroxymethyl-4-(4-fluorophenyl)-5-[3-(4methyl-phenyl)propyl]pyridine] in this work. An IC50 of 750 nM was found for `CC(C)c1nc(C(C)C)c(CCc2ccccc2)c(-c2ccc(F)cc2)c1CO` [Example 37, 2,6-Diisopropyl-3-hydroxymethyl-4-(4-fluorophenyl)-5-(2-phenylethyl)pyridine] in this work. An IC50 of 1100 nM was found for `Cc1cccc(SCc2c(C(C)C)nc(C(C)C)c(CO)c2-c2ccc(F)cc2)c1` [Example 57, 2,6-Diisopropyl-3-hydroxymethyl-4-(4-fluorophenyl)-5-[(3-methyl-phenyl)thio]methylpyridine] in this work. An IC50 of 310 nM was found for `Cc1ccc(COCc2c(C(C)C)cc(C(C)C)c(C(C)O)c2-c2ccc(F)cc2)cc1` (single isomer, unassigned; (+)) [Example 248, (+)-3,5-Diisopropyl-2-[(p-methylbenzyloxy)methyl]-6-(1-hydroxyethyl)-4'-fluoro-1,1'-biphenyl] in this work. An IC50 of 8000 nM was found for `CC(C)c1nc2c(c(-c3ccc(F)cc3)c1CO)CCC2(C)C` [Example 234, 2-Isopropyl-3-hydroxymethyl-4-(4-fluorophenyl)-7,7-dimethyl-5H-cyclopenta[b]pyridine] in this work. An IC50 of 900 nM was found for `CC(C)CCCc1c(C(C)C)nc(C(C)C)c(CO)c1-c1ccc(F)cc1` [Example 30, 2,6-Diisopropyl-3-hydroxymethyl-4-(4-fluorophenyl)-5-(4-methylpentyl)pyridine] in this work. An IC50 of 700 nM was found for `Cc1ccc(/C=C/c2c(C(C)C)nc(C(C)C)c(CO)c2-c2ccc(F)cc2)cc1` [Example 42, 2,6-Diisopropyl-3-hydroxymethyl-4-(4-fluorophenyl)-5-[2(E)-(4-methyl-phenyl)ethenyl]pyridine] in this work.
